Source: patent publication US20070166547A1, “Use of a layer consisting of hydrophobic linear, or two-dimensional polycyclic aromatics as a barrier layer or an encapsulation and electric components constructed with a layer of this type and comprising organic polymers” (priority 2003, published 2007)

Experiments:
[1] = system: embyronic fibroblasts of mouse NIH-3T3; test: Endocellular pHi of fibroblasts by microspectrofluorimetry (FDA, BCECF-AM); type: cell-based; conditions: for rise of pHi: fibroblasts in an attached spread state; for increase of pHi: 20 minutes
Description: The effect of the compounds according to the invention on the endocellular pH, embyronic fibroblasts of mouse NIH-3T3 supplied by the All-Russian Collection of Cellular Cultures of the Institute of Cytology of the Russian Academy of Sciences St. Petersburg was investigated. The cells were grown in the DMEM (Sigma) medium containing 2.2 g/l of sodium bicarbonate with addition of 80.0 mkg/ml of gentamicin and 10.0% embryonal veal serum at a temperature of 37° C. in an atmosphere containing 5.0% of carbon dioxide. For these experiments use was also made of a medium buffer with 5.0 mM of HEPES and 15.0 mM of sodium bicarbonate without serum or with addition of 5.0% serum. The cells were calculated with the help of a hemocytometer. A share of the dead cells was determined by colouring trypan blue.
The measurements of the endocellular pHi were carried out with the help of colorants FDA (Sigma) and BCECF-AM (Calbiochem) on a microspectrofluorimeter by a standard technique (Koshevoy Yu. V., Akatov V. S., Grobova M. E. Microspectrofluorimeter for measuring endocellular pH (micro pH)”. Devices and equipment for studies in the field of physical-and-chemical biology and biotechnology. Pushchino, 1990. P. 8-14).
The cells at a temperature of 37° C. were colored within 5 minutes with 5.0 mkM PDA that before the colouring was prepared from a 10.0 mM solution in acetone by dilution for 30 minutes in a phosphatic buffer to 0.1 mM or 2.0 mkM 1.0 mM solution BCECF-AM in DMSO.
The two-wave method of determining pHi was used based on the ratio intensities of fluorescence of the cells on two wavelengths (Akatov V. S. et all), “Endocellular pH and substrate dependence of proliferation of fibroblasts of Chinese hamster, Cytology, 1991, 33 (7), p. 86-94). The fluorescence was excited by light at λ=490 nm, the emission was recorded simultaneously with two photomultipliers on wavelengths λ=535 nm and λ=570 nm. The K-ratio of the fluorescence on two wavelengths was determined with a deduction of the background fluorescence of the medium near the investigated cells for 40-60 individual cells, which are then averaged taking into account the measurement error. A thermostatically controlled table was used that allowed measurements to be conducted at a temperature of 37° C. An account was taken for the photodynamic damage of the pigmented cells during-long-time continuous illumination by excited light. The readings were taken from a section of the preparation exposed to light for not more than 5 minutes.
The calibration curves for determining the absolute pHi values by magnitude K were constructed using the Thomas technique (Thomas J. A., Bushbaum R. N., Zimniak A. w Racker E. “Intracellular pH measurements in Ehrlich ascites tumor cells utilizing spectroscopic probe generated in situ”, Biochemistry, 1979, v. 18, p. 2210-2218), for which case the pigmented cells treated for 5-10 minutes with carboxyacidic nigericyn (Calbiochem) at a concentration of 5-10 mkg/ml was placed in a solution with a high content of potassium—130 mM KCl, 1.0 mM MgCl2, 20.0 mM of HEPES) and with pH values from 6.2 to 7.6. The K values were measured in the media with different pH assuming that pHi of the cells equals to the pH of the medium due to the action of nigericyn, which exchanges potassium ions for protons and at a high content of potassium in the medium counterbalances the pH of the medium and cells. Calibration curves were used based on the fluorescence of same medium with addition of 5.0 mkM of fluorescence or BCECF were used to the control the stability of the of the instrument readings.
The correctness of the technique was confirmed in the experiments on measurements of pH values of cells treated with protonofor monencine raising pH of the cells due to replacement of sodium ions by protons, and by determining the dependence of the change of pHi on the change of the pH of the medium. […]

[2] = Polarographic study of electrochemical reduction (electrochemical activity); type: physicochemical; conditions: for number of electrons participating in the reduction: calculated with the Geirovsky-Ilkovich equation; for i, mkA (polarographic wave current) / −E1/2, V (half-wave potential vs SCE): 37° C., forward trace, average for the group; for i, mkA (polarographic wave current): 9·10^−4 M; for half-wave potential more positive on reverse stroke than on forward stroke: reverse stroke vs forward stroke
Description: The study was carried out on a general-purpose polarograph PU-1 with a two-coordinate recorder of the “LKD” type using a three-electrode thermostatically controlled polarographic cell and mercury dripping electrode (MDE) with forced separation of the drop and a dropping period of 0.5 second. A platinum wire was used as an auxiliary electrode and a saturated calomel electrode (SCE) was used as a control electrode.
2.0% solutions of sodium chloride having pH 7.0, 7.2, 7.4, 7.6 were used as a background; the pH values of the background solution were corrected by a solution of sodium hydroxide. The polarographic cell was filled with 5.0 ml of the background solution and for 5 minutes was purged with nitrogen for removing the dissolved oxygen. Then 0.5 ml of solution of the studied substance was added to the background solution, and the polarogram was recorded as a polarographic wave. The concentration of the compounds in the polarographic cell was 9·10^−4 M.
The pH was measured on the pH-meter with an accuracy of ±0.05 pH units. The polarographic measurements were carried out at a temperature of 37° C. The recording of polarograms of the investigated materials was effected under conditions of DC current at a scanning rate of the potential 10.0 mV/s with a active scanning stroke from a potential 0 to −0.5 V and sweep retrace from a −0.5 V to 0. The electric-current sensitivity was 5.0 mkA. The scale by the coordinate of the potentials was 50.0 mV/cm. The values of potentials of the half-wave E1/2 of the investigated materials are given with respect to the SCE potential.
The polarogram parameters such as a limiting current ilim and E1/2 were determined by the graphic method. The number of electrons participating in the reaction was calculated on the basis of the analysis of the polarographic wave using the Geirovsky-Ilkovich equation.

[3] = medium with 10.0% blood serum, 0.02 mkg/ml, suspension
[4] = medium with 10.0% blood serum, 0.2 mkg/ml, suspension
[5] = medium with 10.0% blood serum, 2.0 mkg/ml, suspension
[6] = medium with 10.0% blood serum, 20.0 mkg/ml, suspension
[7] = medium without blood serum, 0.02 mkg/ml
[8] = medium without blood serum, 0.2 mkg/ml
[9] = medium without blood serum, 2.0 mkg/ml
[10] = medium without blood serum, 20.0 mkg/ml
[11] = medium without blood serum, 200 mkg/ml
[12] = medium without blood serum, 1000 mkg/ml

| number of electrons participating in the reduction [2] | i, mkA (polarographic wave current) ([2]; pH 7.0) | −E1/2, V (half-wave potential vs SCE) ([2]; pH 7.0) | i, mkA (polarographic wave current) ([2]; pH 7.2) | i, mkA (polarographic wave current) ([2]; pH 7.4) | −E1/2, V (half-wave potential vs SCE) ([2]; pH 7.4) | i, mkA (polarographic wave current) ([2]; pH 7.6) | −E1/2, V (half-wave potential vs SCE) ([2]; pH 7.6) | Structure (SMILES) | rise of pHi ([1]; 2.0 mkg/ml) | rise of pHi ([1]; 20.0 mkg/ml) | increase of pHi [1, 3] | increase of pHi [1, 4] | increase of pHi [1, 5] | increase of pHi [1, 6] | increase of pHi [1, 7] | increase of pHi [1, 8] | increase of pHi [1, 9] | increase of pHi [1, 10] | increase of pHi [1, 11] | increase of pHi [1, 12] | further results |
| --- | --- | --- | --- | --- | --- | --- | --- | --- | --- | --- | --- | --- | --- | --- | --- | --- | --- | --- | --- | --- | --- |
| 4.09 | 0.23 ± 0.03 mkA | 0.092 ± 0.02 V | 0.30 ± 0.01 mkA | 0.29 ± 0.02 mkA | 0.092 ± 0.02 V | 0.31 ± 0.02 mkA | 0.09 ± 0.01 V | O=C([O-])c1ccc2c(=O)[nH][nH]c(=O)c2c1.O=C([O-])c1ccc2c(=O)[nH][nH]c(=O)c2c1.[Na+].[Na+] [Compound 18, disodium salt of 6-carboxy-benzo[d]-3H-pyridazine-1,4-dione] | 0.10 unit pHi | 0.07 unit pHi | do not initiate a change of pH | 0.1 unit pH | 0.12 unit pH | do not initiate a change of pH | no effect was found | no effect was found | 0.08 unit pHi | 0.08 unit pHi | no effect was found | no effect was found | −E1/2, V (half-wave potential vs SCE) ([2]; pH 7.2): 0.09 ± 0.01 V; half-wave potential more positive on reverse stroke than on forward stroke [2]: 30.0 mV |
| 3.5 | 0.30 ± 0.05 mkA | 0.08 ± 0.02 V | 0.26 ± 0.02 mkA | 0.30 ± 0.03 mkA | 0.085 ± 0.02 V | 0.30 ± 0.02 mkA | 0.09 ± 0.02 V | O=c1[nH][nH]c(=O)c2ncncc12.[Li] [Compound 35, lithium salt of pyrimido[4,5-d]-6H-pyridazine-5,8-dione] | 0.10 unit pHi | 0.07 unit pHi | do not initiate a change of pH | 0.1 unit pH | 0.12 unit pH | do not initiate a change of pH | no effect was found | no effect was found | 0.08 unit pHi | 0.08 unit pHi | no effect was found | no effect was found | half-wave potential more positive on reverse stroke than on forward stroke [2]: 27.0 mV |

| Structure (SMILES) | number of electrons participating in the reduction [2] | i, mkA (polarographic wave current) ([2]; pH 7.0) | −E1/2, V (half-wave potential vs SCE) ([2]; pH 7.0) | i, mkA (polarographic wave current) ([2]; pH 7.2) | i, mkA (polarographic wave current) ([2]; pH 7.4) | −E1/2, V (half-wave potential vs SCE) ([2]; pH 7.4) | i, mkA (polarographic wave current) ([2]; pH 7.6) | −E1/2, V (half-wave potential vs SCE) ([2]; pH 7.6) | rise of pHi ([1]; 2.0 mkg/ml) | rise of pHi ([1]; 20.0 mkg/ml) | increase of pHi [1, 3] | increase of pHi [1, 4] | increase of pHi [1, 5] | increase of pHi [1, 6] | increase of pHi [1, 7] | increase of pHi [1, 8] | increase of pHi [1, 9] | increase of pHi [1, 10] | increase of pHi [1, 11] | increase of pHi [1, 12] | further results |
| --- | --- | --- | --- | --- | --- | --- | --- | --- | --- | --- | --- | --- | --- | --- | --- | --- | --- | --- | --- | --- | --- |
| O=c1[nH][nH]c(=O)c2ncccc12.[Na] [Compound 7, sodium salt of pyrido[2,3-d]-6H-pyridazine-5,8-dione] | 3.72 | 0.26 ± 0.04 mkA | 0.11 ± 0.02 V | 0.31 ± 0.02 mkA | 0.27 ± 0.03 mkA | 0.105 ± 0.01 V | 0.30 ± 0.01 mkA | 0.105 ± 0.02 V | 0.10 unit pHi | 0.07 unit pHi | do not initiate a change of pH | 0.1 unit pH | 0.12 unit pH | do not initiate a change of pH | no effect was found | no effect was found | 0.08 unit pHi | 0.08 unit pHi | no effect was found | no effect was found | −E1/2, V (half-wave potential vs SCE) ([2]; pH 7.2): 0.11 ± 0.03 V; half-wave potential more positive on reverse stroke than on forward stroke [2]: 25.0 mV |
